These results are taken from ChEMBL document CHEMBL5120746, “Novel 5-fluorouracil sensitizers for colorectal cancer therapy: Design and synthesis of S1P receptor 2 (S1PR2) antagonists” (Eur J Med Chem, 2022).

The test system of data set [1] is HCT-116. Description: Reversal of 5-FU resistance against 5-FU resistant DPD expressed human HCT-116 cells assessed as reduction in cell viability incubated for 48 hrs in presence of 5-FU by MTT assay. Particulars: HCT-116, 48 h. The format is functional, cell-based.
Data set [2] can be described thus: Half life in Sprague-Dawley rat blood at 1 mg/kg, iv measured up to 24 hrs by HPLC-MS/MS analysis. The format is ADME, organism-based.
Data set [3] is described as follows: AUC (0 to infinity) in Sprague-Dawley rat blood at 1 mg/kg, iv measured up to 24 hrs by HPLC-MS/MS analysis. The format is ADME, organism-based. Also on record: dose 1 mg/kg, time < 24 hrs, route iv.
Data set [4] deals with SW620/5-FU. Description: Antitumor activity against human SW620/5-FU cells xenografted in SPF nude mouse assessed as tumor growth inhibition at 15 mg/kg, iv QD for 21 days and measured every 4 days. Type of data set: functional. Particulars: 504 h, time 21 day, read-out: TGI.
Data set [5] concerns HCT-116. Description: Downregulation of DPD expression in DPD expressed human HCT-116 cells measured after 12 hrs by Western blot analysis. The format is functional, cell-based. Conditions: dose 5-40 µM, DDE = dose-dependent effect.
The subject of data set [6] is Mus musculus. The experiment in a line: Downregulation of DPD expression in tumor of SPF nude mouse xenografted with human SW620/5-FU cells administered intravenously QD for 21 days by Western blot analysis. Type of data set: functional. Conditions: dose 7.5-15 mg/kg, route iv, time 21.0 day, DDE = dose-dependent effect.
Data set [7] is described as follows: AUC (0 to t) in Sprague-Dawley rat blood at 1 mg/kg, iv measured up to 24 hrs by HPLC-MS/MS analysis. Type of data set: ADME, organism-based. Also on record: dose 1 mg/kg, time < 24 hrs, route iv.
The target of data set [8] is ATP-dependent translocase ABCB1 (Homo sapiens, UniProt P08183). The experiment in a line: Reversal of Pgp-mediated paclitaxel resistance in human LCC6MDR cells assessed as P-gp modulating activity by measuring relative fold at 1 uM. Type of data set: cell-based.
Data set [9] can be described thus: MRT (0 to infinity) in Sprague-Dawley rat blood at 1 mg/kg, iv measured up to 24 hrs by HPLC-MS/MS analysis. Type of data set: ADME, organism-based.
The nature of data set [10]: Initial drug concentration in Sprague-Dawley rat blood at 1 mg/kg, iv measured up to 24 hrs by HPLC-MS/MS analysis. The format is ADME, organism-based.
The nature of data set [11]: Apparent volume of distribution in Sprague-Dawley rat plasma at 1 mg/kg, iv measured up to 24 hrs by HPLC-MS/MS analysis. Type of data set: ADME, organism-based. Particulars: in vivo.
The test system of data set [12] is SW620/5-FU. Description: Antitumor activity against human SW620/5-FU cells xenografted in SPF nude mouse assessed as reduction in tumor weight at 15 mg/kg, iv QD for 21 days. Type of data set: functional. Also on record: scale not given: the % may be the effect or the level left. Conditions: time 21 day.

ATP-dependent translocase ABCB1, sequence (P08183 whole entry): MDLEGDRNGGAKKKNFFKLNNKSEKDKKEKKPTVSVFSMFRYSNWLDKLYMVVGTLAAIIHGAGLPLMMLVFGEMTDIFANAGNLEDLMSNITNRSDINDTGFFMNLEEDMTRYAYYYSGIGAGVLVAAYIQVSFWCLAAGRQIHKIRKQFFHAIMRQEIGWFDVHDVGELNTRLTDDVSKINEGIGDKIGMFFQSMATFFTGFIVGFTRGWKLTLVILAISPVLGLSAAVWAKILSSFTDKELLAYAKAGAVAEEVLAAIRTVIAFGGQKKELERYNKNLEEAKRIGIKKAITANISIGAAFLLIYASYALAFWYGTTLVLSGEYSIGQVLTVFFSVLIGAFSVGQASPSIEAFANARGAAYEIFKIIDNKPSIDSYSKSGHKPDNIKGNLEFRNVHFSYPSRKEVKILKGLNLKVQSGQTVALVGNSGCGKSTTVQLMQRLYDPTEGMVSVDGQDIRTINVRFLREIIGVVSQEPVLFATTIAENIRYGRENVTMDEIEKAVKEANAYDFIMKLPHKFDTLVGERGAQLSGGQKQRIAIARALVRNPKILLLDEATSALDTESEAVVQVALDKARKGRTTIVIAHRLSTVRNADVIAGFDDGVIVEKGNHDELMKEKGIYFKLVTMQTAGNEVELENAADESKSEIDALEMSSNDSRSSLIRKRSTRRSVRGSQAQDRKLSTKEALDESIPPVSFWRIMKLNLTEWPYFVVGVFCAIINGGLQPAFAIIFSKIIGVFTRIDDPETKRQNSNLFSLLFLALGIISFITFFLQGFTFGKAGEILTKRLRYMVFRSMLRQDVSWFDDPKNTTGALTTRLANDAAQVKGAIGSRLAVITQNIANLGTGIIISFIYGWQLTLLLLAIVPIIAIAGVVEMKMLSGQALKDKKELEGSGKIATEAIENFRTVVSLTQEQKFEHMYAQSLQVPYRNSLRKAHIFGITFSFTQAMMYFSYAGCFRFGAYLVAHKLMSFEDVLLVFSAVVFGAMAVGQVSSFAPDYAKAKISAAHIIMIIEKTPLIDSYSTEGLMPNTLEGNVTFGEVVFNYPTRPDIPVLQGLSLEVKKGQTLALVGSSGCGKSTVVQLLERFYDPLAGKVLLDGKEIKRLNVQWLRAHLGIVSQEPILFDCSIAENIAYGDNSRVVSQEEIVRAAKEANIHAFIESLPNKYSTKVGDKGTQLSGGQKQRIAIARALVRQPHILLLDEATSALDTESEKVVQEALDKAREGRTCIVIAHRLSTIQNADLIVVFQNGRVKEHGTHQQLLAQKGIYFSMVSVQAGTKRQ

Consider `Cn1ncc2c(-c3ccc(F)cc3)cc(NNC(=O)Nc3cc(Cl)nc(Cl)c3)nc21`, for which, in data set [1], the EC50 amounted to 8.21 µM. In addition, the half-life in [2] was 6 h. Moreover, in data set [3], the AUC(0-inf) was found to be 11200 ng·h/mL. The inhibition in vivo at 15 mg/kg in [4] amounted to 28.5%. Also, the Activity result in data set [5] was “Dde”; in [6] it was “Dde”; in data set [12], 12.34%. Besides, the AUC(0-t) at 24 h in data set [7] was found to be 10300 ng·h/mL. Moreover, the “fold change (FC)” value in data set [8] is on record as 1.4. In addition, in data set [9], the MRT inf was 8.5 h. In addition, the C0 at 24 h in data set [10] amounted to 4970 ng/mL. In addition, the “Vd(app)” value in data set [11] was 2 L/kg.
